{
  "source": "patent US9339523B2",
  "about": "“Estrogenic extracts of Asparagus conchinchinensis (Lour.) Merr of the Liliaceae family and uses thereof” (BIONOVO, INC., priority 2007, dated 2016)",
  "key": {"TNF-RE tkLuc": {"system": "TNF-RE tkLuc", "experiment": "TNF-RE tkLuc reporter, ERα and ERβ not separated (Example 2)", "type": "cell-based, human", "settings": "for activation of TNF-RE tkLuc: antiestrogens, in contrast to E2", "method": "Plasmid Construction. […] ERβ mutants were created with QuikChange site-directed mutagenesis kits (Stratagene), by using oligonucleotides containing the mutation. The mutants were sequenced with Sequenase kits (Amersham Pharmacia) to verify the presence of the mutation.\n(§1) For experiments, cells were collected, transferred to a cuvette, and then electroporated with a Bio-Rad gene pulser as described previously using 3 μg of reporter plasmid and 1 μg of ERα or ERβ expression vectors. After electroporation, the cells were resuspended in media and plated at 1 ml/dish in 12-well multiplates. […] The concentration of hormone required to produce a half-maximal induction (EC50) or inhibition (IC50) of luciferase activity was calculated with the Prism curve-fitting program (Graph Pad Software, version 2.0b). […] The cells were plated in duplicate at a density of 25,000 cells/35-mm plate in tissue culture medium containing 3% stripped fetal bovine serum. […] After 8 days the cells were counted with a Coulter counter."}, "ERβ [1]": {"target": "T1, ERβ (Homo sapiens, UniProt Q92731)", "T1 sequence (Q92731 whole entry)": "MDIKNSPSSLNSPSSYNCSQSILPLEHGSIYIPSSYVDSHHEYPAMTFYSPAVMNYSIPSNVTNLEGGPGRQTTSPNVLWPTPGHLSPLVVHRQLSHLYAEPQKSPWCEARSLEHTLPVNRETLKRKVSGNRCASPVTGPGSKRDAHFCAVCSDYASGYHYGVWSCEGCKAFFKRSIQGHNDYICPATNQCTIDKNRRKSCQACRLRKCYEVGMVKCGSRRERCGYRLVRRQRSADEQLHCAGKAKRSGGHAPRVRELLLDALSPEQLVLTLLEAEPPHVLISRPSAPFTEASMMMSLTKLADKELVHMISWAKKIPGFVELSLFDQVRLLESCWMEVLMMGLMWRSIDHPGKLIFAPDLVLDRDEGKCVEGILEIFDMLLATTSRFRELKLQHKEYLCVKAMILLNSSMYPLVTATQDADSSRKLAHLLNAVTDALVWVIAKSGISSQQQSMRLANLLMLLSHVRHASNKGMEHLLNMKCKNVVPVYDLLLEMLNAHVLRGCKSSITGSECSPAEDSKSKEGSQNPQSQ", "experiment": "TNF-RE tkLuc repression in U2OS cells with ERβ", "type": "cell-based", "set-up": "expressed in transfected cells; host or cells: U2OS (A10)", "method": "as §1\n(§2) The extracts (a and b) were than decanted and only the soluble material was used."}, "ERβ [2]": {"target": "T1, ERβ", "experiment": "ERE-tk-Luc luciferase assay in U2OS cells with ERβ", "type": "cell-based", "set-up": "expressed in transfected cells; host or cells: U2OS (human osteosarcoma)", "settings": "competition with the extract, FIG. 6", "method": "as §1, §2"}, "[3]": {"settings": "women at high risk for breast cancer; cited from earlier work"}, "[4]": {"settings": "five years of therapy; cited from earlier work"}},
  "data": [
    {"compound": "C[C@]12CC[C@@H]3c4ccc(O)cc4CC[C@H]3[C@@H]1CC[C@@H]2O", "note": "[E2, estradiol]", "values": [
      {"measurement": "repression of TNF-α activation of TNF-RE tkLuc", "setting": "TNF-RE tkLuc; in the presence of ERα and ERβ", "value": "60-80%"},
      {"measurement": "repression of TNF-α activation of TNF-RE", "setting": "ERβ [1]", "value": 100, "unit": "%"}
    ]},
    {"compound": "C[C@]12CC[C@@H]3c4ccc(O)cc4C[C@@H](CCCCCCCCC[S+]([O-])CCCC(F)(F)C(F)(F)F)[C@H]3[C@@H]1CC[C@@H]2O", "note": "(stereo partly shown) [ICI 182, 780]", "values": [
      {"measurement": "effect on the repression induced by E2", "setting": "TNF-RE tkLuc; TNF-RE tkLuc", "value": "abolished the repression induced by E2"},
      {"measurement": "activation of TNF-RE tkLuc", "setting": "TNF-RE tkLuc", "value": 2, "unit": "fold"}
    ]},
    {"compound": "O=C(c1ccc(OCCN2CCCCC2)cc1)c1c(-c2ccc(O)cc2)sc2cc(O)ccc12", "note": "[raloxifene]", "values": [
      {"measurement": "effect on the extract's stimulation of the ERE with ERβ", "setting": "ERβ [2]", "value": "is inhibited"},
      {"measurement": "effect on the repression induced by E2", "setting": "TNF-RE tkLuc; TNF-RE tkLuc", "value": "abolished the repression induced by E2"},
      {"measurement": "activation of TNF-RE tkLuc", "setting": "TNF-RE tkLuc", "value": 2, "unit": "fold"}
    ]},
    {"compound": "CC/C(=C(\\c1ccccc1)c1ccc(OCCN(C)C)cc1)c1ccccc1", "note": "[tamoxifen]", "values": [
      {"measurement": "reduction of the risk of primary invasive breast cancer", "setting": "[3]", "value": 49, "unit": "%"},
      {"measurement": "effect on the repression induced by E2", "setting": "TNF-RE tkLuc; TNF-RE tkLuc", "value": "abolished the repression induced by E2"},
      {"measurement": "activation of TNF-RE tkLuc", "setting": "TNF-RE tkLuc", "value": 2, "unit": "fold"},
      {"measurement": "reduction of mortality from breast cancer", "setting": "[4]", "value": 22, "unit": "%"},
      {"measurement": "reduction of the risk of recurrences", "setting": "[4]", "value": 42, "unit": "%"}
    ]},
    {"compound": "TNF-α", "values": [
      {"measurement": "activation of 3 copies of the TNF-RE (−125 to −82) upstream of the tk promoter", "setting": "TNF-RE tkLuc; TNF-RE tkLuc", "value": "5-10 fold"}
    ]}
  ]
}
